Reference: patent US20230256004A1, “COMPOSITIONS AND METHODS FOR TREATING MOOD DISORDERS AND CIRCADIAN RHYTHM SLEEP DISORDERS” (Light Aqua LLC, priority 2020, published 2023)

Columns and labels:
[1] = system: rest/activity clock; conditions: cited from earlier work
[2] = system: rats and mice; conditions: cited from earlier work
[3] = system: mammals; conditions: in vivo; cited from earlier work
[4] = system: humans; conditions: acute treatment; 1% of total body water versus 15% toxic
[5] = system: humans; conditions: cited from earlier work
[6] = system: fish and tadpoles; conditions: cited from earlier work
[7] = system: one-celled algae; conditions: in vivo; cited from earlier work
[8] = system: Major Depressive Disorder; test: proposed treatment of Major Depressive Disorder with deuterium oxide/scopolamine solution; assay type: in vivo, human; conditions: Major Depressive Disorder subjects; proposed experiment
[9] = system: circadian rest/activity cycle; conditions: cited from earlier work
[10] = in vivo; cited from earlier work

For `[2H]O[2H]` [deuterium oxide], the “deuterium oxide concentration at which circadian rhythm began to fluctuate” value ([1]; hamsters, Richter 1977) is listed as 5%, the “drinking-water deuterium oxide concentration at which rest/activity cycle was freed from entrainment by light/dark” value ([1]; hamsters, Richter 1977) is listed as 10% and the “slowing of circadian rhythms per 5% deuterium oxide concentration increase in total body water” value ([1]; hamsters, on average, linear response, no lower threshold) is listed as “about 1%”. For the same molecule, the “deuterium oxide concentration at which circadian rhythm began to fluctuate, one hamster” value ([1]; one hamster, Richter 1977) was 1%, the “body water replacement at which intoxication signs and symptoms occur” value ([2]; in vivo) was “over 15%” and the “deuterium oxide concentration recommended as safe long term” value ([2]; in vivo) was 5%. For the same molecule, the “body water deuterium oxide concentration producing coma and then death” value ([2]; rats and mice) was 30-35%, the “drinking water concentration of deuterium oxide safe long term” value [3] was 5% and the “estimated Therapeutic Index (ratio of toxic dose to therapeutic dose)” value [4] was “about 15”. The “concentration in human fluids found not to be toxic over short time periods” value ([5]; humans, Wallace 1995) was at most 23%, the “acute replacement of total body water with no evident adverse effects” value ([5]; in vivo) was 15-23% and the adverse effects ([5]; in vivo) was “no adverse effects”. The “adverse effects after one liter” value ([5]; in vivo) was “severe vertigo with emesis”, the “deuterium oxide concentration considered safe long term” value ([5]; in vivo) was 1% and the “dose at which positional ocular nystagmus was observed” value ([5]; in vivo) was 25 to 50 mL. For the same molecule, the duration of nystagmus ([5]; in vivo) was “up to 140 minutes”, the “harmful effects in babies” value ([5]; in vivo) was “no observed harmful effects” and the “onset of nystagmus post ingestion” value ([5]; in vivo) was “about 20 minutes”. The “onset of vertigo after dose” value ([5]; in vivo) was 30 min, the “reactions to deuterium oxide” value ([5]; in vivo) was “short-term vertigo in two of the subjects” and the “sensitivity of humans to toxic effects compared to mice” value ([5]; in vivo) was “roughly 5 times”. The “threshold dosage for noticeable side-effects” value ([5]; in vivo) was 70 to 140 g, the “total body water concentration considered toxic threshold” value ([5]; in vivo) was at least 15% and the “heavy water concentration survived long-term” value [6] was 30%. The “deuterium oxide concentration survived long-term” value [7] was 100%, the “predicted time for treatment regimen to take effect” value [8] was at most 2 days and the “time for chronomutagenic effect to take effect” value ([9]; mice, 5% deuterium oxide, Dowse 1972) was at most 24 h. The “increase in period length of the activity rest cycle” value ([9]; white mice, maximum 30% deuterium oxide dose administered, Suter and Rawson 1968) was at most 6%, the elimination half-life [10] was “up to 10 days” and the metabolites [10] was “no metabolites”.
